Measured values reported in patent publication US9079888B2, “Compounds as histamine H3 receptor ligands” (Suven Life Sciences Limited, priority 2011, dated 2015).
Structures can show the parent of a compound that is named as a salt.

Assays:
[1] = molecular target: Human or Rat Histamine H3 Receptor; assay: Binding assay for human or rat Histamine H3 receptor ([3H] R-α-methylhistamine displacement); conditions: radioligand [3H] R-α-methylhistamine 3.0 nM; receptor source rat brain frontal cortex or recombinant human cDNA in CHO cells (table does not say which)
Procedure: The reaction was terminated by rapid vacuum filtration onto the glass fiber filters. Radioactivity trapped onto the filters was determined and compared to the control values in order to ascertain any interactions of the test compound(s) with either cloned human or rat receptor binding site.

[2] = system: rats; assay: Inhibition of Food Intake; type: in vivo; conditions: rats fasted 18 hours, oral treatment 60 minutes before feed, active dose
Procedure: The anti-obesity properties of compounds of this invention were estimated using this model.
The experiment consisted of 6 days. The rats were adapted to the 18 hours fasting and 6 hours feeding pattern. The animals were housed in a group of three in the cages provided with the fasting grills and was fasted for 18 hours. After 18 hours fasting the rats were separated and placed individually in the cage. Weighed amount of feed was provided to rats for 6 hours and the feed intake at 1 hour, 2 hours, 4 hours and 6 hours was measured.
Again the rats were regrouped and fasted for 18 hours. The above procedure was followed for 5 days. The average cumulative food intake by the rats on the last 3 days was calculated. Animals were randomized on the basis of their previous three days food intake. On the day of experiment the rats were orally treated test compounds or vehicle. After 60 minutes, the feed was provided to the rats and the food intake at 1 hour, 2 hours, 4 hours and 6 hours was measured. The food intake by the rats treated with test compound was compared with the vehicle treated group by using Unpaired Student's t test.

[3] = Rodent Pharmacokinetic Study
Procedure: Male Wistar rats (230-280 grams) obtained from NIN (National Institute of Nutrition, Hyderabad, India) were used as an experimental animal. Three animals were housed in each cage. Animals were kept fasted over night and maintained on a 12 hours light/dark cycle. Three rats were dosed New chemical entity (NCE) orally (3 or 10 mg/kg) and intravenously (1 or 5 mg/kg) on day 0 and day 2.
At each time point blood was collected by jugular vein. Blood was stored at 2-8° C. until analysis. The concentrations of the NCE compound in blood were determined using LC-MS/MS method. Schedule time points: Pre dose 0.08, 0.25, 0.5, 1, 2, 4, 6, 8 and 24 hours after dosing (n=3). The NCE compounds were quantified in blood by partially validated LC-MS/MS method using acetonitrile precipitation technique. […] Study samples were analyzed using calibration samples in the batch and quality control samples spread across the batch.
Pharmacokinetic parameters were calculated by non-compartmental model using software WinNonlin version 5.0.1.

[4] = system: Male Wister rats; assay: Object Recognition Task Model; type: in vivo; conditions: rat; for Exploration time mean ± S.E.M, Familiar object / Exploration time mean ± S.E.M, Novel object: choice trial T2 24 h after T1
Procedure: The cognition enhancing properties of compounds of this invention were estimated by using this model.
Male Wister rats (230-280 grams) obtained from N. I. N. (National Institute of Nutrition, Hyderabad, India) was used as experimental animals. Four animals were housed in each cage. Animals were kept on 20% food deprivation before one day and given water ad libitum throughout the experiment and maintained on a 12 hours light/dark cycle. Also the rats were habituated to individual arenas for 1 hour in the absence of any objects.
One group of 12 rats received vehicle (1 mL/Kg) orally and another set of animals received compound of the formula (I) either orally or i.p., before one hour of the familiar (T1) and choice trial (T2).
The experiment was carried out in a 50×50×50 cm open field made up of acrylic. In the familiarization phase, (T1), the rats were placed individually in the open field for 3 minutes, in which two identical objects (plastic bottles, 12.5 cm height×5.5 cm diameter) covered in yellow masking tape alone (a1 and a2) were positioned in two adjacent corners, 10 cms from the walls. After 24 hours of the (T1) trial for long-term memory test, the same rats were placed in the same arena as they were placed in T1 trial. Choice phase (T2) rats were allowed to explore the open field for 3 minutes in presence of one familiar object (a3) and one novel object (b) (Amber color glass bottle, 12 cm high and 5 cm in diameter). Familiar objects presented similar textures, colors and sizes. During the T1 and T2 trial, explorations of each object (defined as sniffing, licking, chewing or having moving vibrissae whilst directing the nose towards the object at a distance of less than 1 cm) were recorded separately by stopwatch. Sitting on an object was not regarded as exploratory activity, however, it was rarely observed.
T1 is the total time spent exploring the familiar objects (a1+a2).
T2 is the total time spent exploring the familiar object and novel object (a3+b).
The object recognition test was performed as described by Ennaceur, A., Delacour, J., 1988, A new one-trial test for neurobiological studies of memory in rats—Behavioural data, Behay. Brain Res., 31, 47-59.

[5] = Rodent Brain Penetration Study; type: in vivo, Male Wister rats; conditions: brain / whole blood; Wistar/Male rat, Per Oral, 3 mg/kg, vehicle water; read-out: Brain Penetration Ratio (Cbrain/Cblood)
Procedure: Three animals were housed in each cage. Animals were given water and food ad libitum throughout the experiment, and maintained on a 12 hours light/dark cycle.
New chemical entity (NCE) was dissolved in suitable vehicle and administered orally (3 or 10 mg/kg). […] Blood and brain tissue were collected and brain was homogenized to yield 20% w/v. Blood was stored at 2-8° C. and brain homogenate was frozen at −20° C. until analysis. The concentrations of NCE in blood and brain were quantified using LC-MS/MS method.
Extents of brain-blood ratio were calculated (Cbrian/Cblood)

[6] = Wistar/Male rat, Intravenous, 1 mg/kg, vehicle water, blood
[7] = Wistar/Male rat, Per Oral, 3 mg/kg, vehicle water, blood
[8] = Wistar/Male rat, per oral 3 mg/kg vs intravenous 1 mg/kg
[9] = male, Wistar, rat, whole blood, iv, 1 mg/kg
[10] = male, Wistar, rat, whole blood, po, 3 mg/kg
[11] = male, Wistar, rat, whole blood, po, 10 mg/kg

Work on `Cc1cc(OC2CCN(C3CCCC3)CC2)ccc1NC(=O)CN1CCC[C@H]1C` [Example 15, N-[4-(1-Cyclopentylpiperidin-4-yloxy)-2-methylphenyl]-2-(R-2-methylpyrrolidin-1-yl) acetamide] yielded a Ki [1] of 4 nM.

Work on `O=C(CN1CCCCC1)Nc1ccc(OC2CCN(C3CCCC3)CC2)cc1` [Example 27, N-[4-(1-Cyclopentylpiperidin-4-yloxy)phenyl]-2-(piperidin-1-yl) acetamide dihydrochloride] yielded a Ki [1] of 4.1 nM.

In the case of `O=C(CN1CCCCC1)Nc1ccc(OC2CCN(C3CCC3)CC2)cc1` [Example 29, N-[4-(1-Cyclobutylpiperidin-4-yloxy)phenyl]-2-(piperidin-1-yl) acetamide], the Ki [1] is reported as 1.6 nM.

For `Cc1cc(OC2CCN(C3CCCC3)CC2)ccc1NC(=O)CN1CCCCC1` [Example 12, N-[4-(1-Cyclopentylpiperidin-4-yloxy)-2-methylphenyl]-2-(piperidin-1-yl) acetamide], the Ki [1] was 7.5 nM.

Work on `O=C(CNc1ccc(OC2CCN(C3CCC3)CC2)cc1)N1CCOCC1` [Example 2, 2-[4-(1-Cyclobutylpiperidin-4-yloxy)phenylamino]-1-(morpholin-4-yl)ethanone hydrochloride] yielded a Ki [1] of 6.4 nM.

For `O=C(CN1CCCC1)Nc1ccc(OC2CCN(C3CCC3)CC2)cc1` [Example 21, N-[4-(1-Cyclobutylpiperidin-4-yloxy)-phenyl]-2-(pyrrolidin-1-yl) acetamide], the Ki [1] was 1.1 nM and the “Inhibition of food intake” value [2] was “≧30 mg/kg, p.o”.

For `Cc1cc(OC2CCN(C3CCC3)CC2)ccc1NC(=O)CN1CCC[C@H]1C` [Example 16, N-[4-(1-Cyclobutylpiperidin-4-yloxy)-2-methylphenyl]-2-(R-2-methylpyrrolidin-1-yl) acetamide], the Ki [1] was 2.4 nM and the “Inhibition of food intake” value [2] was “≧30 mg/kg, p.o”.

With `Cc1cc(OC2CCN(C3CCC3)CC2)ccc1NC(=O)CN1CCCCC1` [Example 13, N-[4-(1-Cyclobutylpiperidin-4-yloxy)-2-methylphenyl]-2-(piperidin-1-yl) acetamide] the Ki [1] was 3.3 nM and the “Inhibition of food intake” value [2] was 30 mg/kg, p.o.

`Cc1cc(OC2CCN(C(C)C)CC2)ccc1NC(=O)CN1CCCC1` [Example 10, N-[4-(1-Isopropyl-piperidin-4-yloxy)-2-methylphenyl]-2-(pyrrolidin-1-yl) acetamide] gave a Ki [1] of 8.4 nM.

`O=C(CN1CCOCC1)Nc1ccc(OC2CCN(C3CC3)CC2)cc1` [Example 23, N-[4-(1-Cyclopropylpiperidin-4-yloxy)phenyl]-2-(morpholin-4-yl) acetamide] showed an AUCt [3, 6] of 338 ± 29 ng·h/mL, a T1/2 [3, 6] of 1.13 ± 0.02 h and an AUCt [3, 7] of 556 ± 111 ng·h/mL. It also gave a Cmax [3, 7] of 389 ± 29 ng/mL, a T1/2 [3, 7] of 1.23 ± 0.53 h and a Tmax [3, 7] of 0.50 ± 0.00 h. For the same molecule, the bioavailability [3, 8] was 55 ± 10%.

In the case of `CC(=O)N(CCN1CCOCC1)c1ccc(OC2CCN(C3CCC3)CC2)cc1F` [Example 37, N-[4-(1-Cyclobutylpiperidin-4-yloxy)-2-fluorophenyl]-N-[2-(morpholin-4-yl)-ethyl] acetamide], the Inference ([4]; 3 mg/kg p.o.) is reported as “Active”, the “Exploration time mean ± S.E.M, Familiar object” value ([4]; 3 mg/kg p.o.) is reported as 5.53 ± 1.67 s and the “Exploration time mean ± S.E.M, Novel object” value ([4]; 3 mg/kg p.o.) is reported as 14.18 ± 2.04 s. For the same molecule, the Ki [1] was 9.73 nM, the Kp [5] was 1.24 ± 0.18 and the AUC(0-t) [3, 9] was 68 ± 2 ng·h/mL. For the same molecule, the half-life [3, 9] was 3.3 ± 0.42 h, the AUC(0-t) [3, 10] was 64 ± 16 ng·h/mL and the Cmax [3, 10] was 27 ± 11 ng/mL. For the same molecule, the Tmax [3, 10] was 0.5 h, the bioavailability [3, 10] was 32 ± 8% and the half-life [3, 10] was 3.59 ± 0.43 h.

With `CC(C)N1CCCN(CC(=O)Nc2ccc(OC3CCN(C4CCC4)CC3)cc2)CC1` [Example 24, N-[4-(1-Cyclobutylpiperidin-4-yloxy)phenyl]-2-(4-isopropyl[1,4]diazepan-1-yl) acetamide] the Ki [1] was 1 nM.

Molecule `O=C(CN1CCCC1)Nc1ccc(OC2CCN(C3CCCC3)CC2)cc1` [Example 28, N-[4-(1-Cyclopentylpiperidin-4-yloxy)phenyl]-2-(pyrrolidin-1-yl) acetamide dihydrochloride] has a Ki [1] of 3.8 nM.

For `CC(=O)N1CCN(CC(=O)Nc2ccc(OC3CCN(C4CCC4)CC3)cc2)CC1` [Example 39, N-[4-(1-Cyclobutylpiperidin-4-yloxy)phenyl]-2-(1-acetylpiperazin-4-yl) acetamide], the Ki [1] was 5.39 nM.

With `O=C(CN1CCCCC1)Nc1ccc(OC2CCN(C3CCC3)CC2)cc1C(F)(F)F` [Example 7, N-[4-(1-Cyclobutylpiperidin-4-yloxy)-2-trifluoromethylphenyl]-2-(piperidin-1-yl) acetamide] the Ki [1] was 14.8 nM.

In the case of `CN(C(=O)CN1CCOCC1)c1ccc(OC2CCN(C3CCC3)CC2)cc1` [Example 14, N-[4-(1-Cyclobutylpiperidin-4-yloxy)phenyl]-N-methyl-2-(morpholin-4-yl) acetamide], the Ki [1] is reported as 4.9 nM.

Molecule `CC(=O)N(CCN1CCOCC1)c1ccc(OC2CCN(C3CC3)CC2)cc1` [Example 38, N-[4-(1-Cyclopropylpiperidin-4-yloxy)phenyl]-N-[2-(morpholin-4-yl)ethyl] acetamide L(+) tartarate] has a Ki [1] of 6.6 nM.

In the case of `Cc1cc(OC2CCN(C3CCC3)CC2)ccc1NC(=O)CN1CCCC1` [Example 11, N-[4-(1-Cyclobutylpiperidin-4-yloxy)-2-methylphenyl]-2-(pyrrolidin-1-yl) acetamide], the Ki [1] is reported as 1.9 nM, the AUC(0-t) ([3]; male, Wistar, rat, whole blood, iv, 5 mg/kg) is reported as 3340 ± 656 ng·h/mL and the AUC(0-t) [3, 11] is reported as 1350 ± 569 ng·h/mL. It also gave a Cmax [3, 11] of 122 ± 55 ng/mL, a Tmax [3, 11] of 4 ± 1.76 h and a bioavailability [3, 11] of 20 ± 9%.

With `CC(C)N1CCC(Oc2ccc(NC(=O)CN3CCOCC3)cc2)CC1` [Example 22, N-[4-(1-Isopropylpiperidin-4-yloxy)-phenyl]-2-(morpholin-4-yl) acetamide] the Inference ([4]; 1 mg/kg p.o.) was “Active”, the “Exploration time mean ± S.E.M, Familiar object” value ([4]; 1 mg/kg p.o.) was 7.12 ± 1.51 s and the “Exploration time mean ± S.E.M, Novel object” value ([4]; 1 mg/kg p.o.) was 16.50 ± 2.37 s. It also gave a Ki [1] of 8.3 nM, an AUCt [3, 6] of 340 ± 60 ng·h/mL and an AUCt [3, 7] of 850 ± 61 ng·h/mL. The Tmax [3, 7] was 0.42 ± 0.14 h, the bioavailability [3, 8] was 85 ± 12% and the Cmax [3, 10] was 376 ± 27 ng/mL. For the same molecule, the “Inhibition of food intake” value [2] was 60 mg/kg, p.o.

For `O=C(CN1CCOC(CO)C1)Nc1ccc(OC2CCN(C3CCC3)CC2)cc1` (stereo not drawn) [Example 25, N-[4-(1-Cyclobutylpiperidin-4-yloxy)phenyl]-2-(2-hydroxymethylmorpholin-4-yl) acetamide], the Ki [1] was 4.05 nM.

With `O=C(CN1CCC(O)CC1)Nc1ccc(OC2CCN(C3CCC3)CC2)cc1` [Example 19, N-[4-(1-Cyclobutylpiperidin-4-yloxy)phenyl]-2-(4-hydroxypiperidin-1-yl) acetamide] the Ki [1] was 6.4 nM, the AUC(0-t) [3, 9] was 347 ± 44 ng·h/mL and the half-life [3, 9] was 17 ± 4.5 h. The AUC(0-t) [3, 10] was 838 ± 96 ng·h/mL, the Cmax [3, 10] was 67 ± 11 ng/mL and the Tmax [3, 10] was 2.67 ± 1.15 h. It also gave a bioavailability [3, 10] of 81 ± 12% and a half-life [3, 10] of 12.8 ± 2.48 h.

`O=C(CCN1CCOCC1)Nc1ccc(OC2CCN(C3CCC3)CC2)cc1` [Example 26, N-[4-(1-Cyclobutylpiperidin-4-yloxy)phenyl]-3-(morpholin-4-yl) propionamide] showed a Ki [1] of 6.7 nM.
